According to patent US20250144067A1, “PERSONALIZED STARVATION THERAPY FOR CANCER” (Faeth Therapeutics, Inc., priority 2021, published 2025):
Where a name gives a salt, the structure may show the parent alone. Numbered stars: 1 amine (or outer) side, 2 acyl side, 3 side chain; on linkers, the order of the positions; unused ones are H or OH. Bridge positions count the residues as written; N and C are the ends. Peptide text beside a SMILES is read from it. X2 = O=C(CCC[*:2])[*:1]

Experiments:
[1] = test system: NCI-H292 lung cancer cells; assay: FDA drug screening, complete media vs cholesterol-free media without statin (TABLE 1); type: cell-based, human
[2] = test system: NCI-H292 lung cancer cells; assay: FDA drug screening, complete media vs cholesterol-free media with simvastatin (TABLE 2); type: cell-based, human; conditions: for Cholesterol-free media + simvastatin (0.04 μM) / Complete Media: NCI-H292 cells
[3] = Complete minus Cholesterol-free, >0 enhanced anti-cancer activity, about 0 neutral, <0 antagonist
[4] = NCI-H292 cells, cholesterol-free media without statin
[5] = FDA drug library screen, cholesterol-free media with simvastatin 0.04 μM
[6] = FDA drug library screen, complete media
[7] = complete media vs cholesterol-free media + simvastatin (0.04 μM), >0 enhanced anti-cancer activity, about 0 neutral, <0 antagonist
[8] = drug in cholesterol-free media with simvastatin 0.04 μM
[9] = cholesterol-free media with simvastatin 0.04 μM, FDA drug library screen (TABLE 2)
[10] = complete media, FDA drug library screen (TABLE 2)
[11] = complete media minus cholesterol-free media + simvastatin (0.04 μM), >0 enhanced anti-cancer activity, about 0 neutral, <0 antagonist
[12] = NCI-H292 cells, cholesterol-free media without statin, FDA drug library screen
[13] = NCI-H292 cells, complete media, FDA drug library screen
[14] = complete vs cholesterol-free media, >0 enhanced anti-cancer activity, about 0 neutral, <0 antagonist
[15] = Complete minus Cholesterol-free, […]
[16] = complete media minus cholesterol-free media + simvastatin, […]
[17] = Complete minus Cholesterol-free, greater than 0 enhanced anti-cancer activity, about 0 neutral, below 0 antagonist
[18] = NCI-H292 cells, FDA drug library screen, cholesterol-free media without statin
[19] = NCI-H292 cells, FDA drug library screen, complete media
[20] = complete media minus cholesterol-free media + simvastatin, >0 enhanced anti-cancer activity, about 0 neutral, <0 antagonist
[21] = Complete minus Cholesterol-free, greater than 0 enhanced anti-cancer activity, about 0 neutral, below 0 antagonists
[22] = NCI-H292 cells in cholesterol-free media without statin
[23] = NCI-H292 cells in complete media
[24] = complete media vs cholesterol-free media + simvastatin (0.04 μM), […]

CC(/C=C1\SC(=S)N(CC(=O)O)C1=O)=C\c1ccccc1 [Epalrestat]
Difference [1, 3]: −0.29 | Cholesterol-free [1, 4]: 1.235 | Complete ([1]; NCI-H292 cells, complete media): 0.9425 | Cholesterol-free media + simvastatin (0.04 μM) [2, 5]: 0.9966 | Complete Media [2, 6]: 0.8579 | Difference [2, 7]: −0.14

c1ccc(CC2=NCCN2)cc1 [Tolazoline (hydrochloride)]
Difference [1, 3]: −0.25 | Cholesterol-free [1, 4]: 1.249 | Complete ([1]; NCI-H292 cells, complete media): 0.9982 | Cholesterol-free media + simvastatin (0.04 μM) [2, 8]: 1.363 | Complete Media ([2]; drug in complete media): 1.126 | Difference [2, 7]: −0.24

Nc1ncn([C@@H]2O[C@H](CO)[C@@H](O)[C@H]2O)c(=O)n1 [5-Azacytidine]
Cholesterol-free [1, 4]: 1.157 | Complete ([1]; NCI-H292 cells, complete media): 0.8064 | Difference ([1]; complete vs cholesterol-free media, greater than 0 enhanced anti-cancer activity, about 0 neutral, below 0 antagonists): −0.35 | Cholesterol-free media + simvastatin (0.04 μM) [2, 9]: 0.9383 | Complete Media [2, 10]: 0.8858 | Difference [2, 11]: −0.05

CC(C)(C(=O)O)c1ccc(C(O)CCCN2CCC(C(O)(c3ccccc3)c3ccccc3)CC2)cc1 (stereo not drawn) [Fexofenadine (hydrochloride)]
Difference [1, 3]: −0.02 | Cholesterol-free [1, 12]: 1.052 | Complete [1, 13]: 1.034 | Cholesterol-free media + simvastatin (0.04 μM) ([2]; FDA library drug in cholesterol-free media with simvastatin 0.04 μM): 1.402 | Complete Media ([2]; FDA library drug in complete media): 1.104 | Difference [2, 7]: −0.30

C=CCNc1nc(NCC=C)nc(N2CCN(C(c3ccc(F)cc3)c3ccc(F)cc3)CC2)n1 [Almitrine mesylate]
Cholesterol-free [1, 12]: 0.7257 | Complete [1, 13]: 0.8177 | Difference [1, 14]: 0.09 | Cholesterol-free media + simvastatin (0.04 μM) [2, 5]: 0.7616 | Complete Media [2, 6]: 0.6708 | Difference [2, 7]: −0.09

CC[C@H](C)[C@@H]1NC(=O)[C@H](Cc2ccc(OC)cc2)NC(=O)CCCSC[C@@H](C(=O)N2CCC[C@H]2C(=O)N[C@@H](CC(C)C)C(=O)NCC(N)=O)NC(=O)[C@H](CC(N)=O)NC(=O)[C@H](CCC(N)=O)NC1=O [Carbetocin] (Y(Me)IQNCPLG-NH2; linker N-5 via X2)
Difference [1, 15]: −0.26 | Cholesterol-free [1, 4]: 1.283 | Complete ([1]; NCI-H292 cells, complete media): 1.021 | Cholesterol-free media + simvastatin (0.04 μM) [2, 5]: 1.6 | Complete Media [2, 6]: 1.76 | Difference [2, 16]: 0.16

CNC(=O)c1cc(Oc2ccc(NC(=O)Nc3ccc(Cl)c(C(F)(F)F)c3)c(F)c2)ccn1 [Regorafenib (Hydrochloride)]
Difference [1, 3]: 0.04 | Cholesterol-free [1, 12]: 0.8297 | Complete [1, 13]: 0.8736 | Cholesterol-free media + simvastatin (0.04 μM) [2, 9]: 0.9433 | Complete Media [2, 10]: 0.9026 | Difference [2, 11]: −0.04

O=C(Nc1nc(-c2cc(Cl)cs2)c(N2CCN(C3CCCCC3)CC2)s1)c1cnc(N2CCC(C(=O)O)CC2)c(Cl)c1 [Avatrombopag (hydrochloride)]
Difference [1, 17]: −0.15 | Cholesterol-free [1, 18]: 0.9128 | Complete [1, 19]: 0.7673 | Cholesterol-free media + simvastatin (0.04 μM) [2, 5]: 1.18 | Complete Media [2, 6]: 1.082 | Difference [2, 7]: −0.10

CC[C@H](C)C(=O)O[C@H]1C[C@@H](C)C=C2C=C[C@H](C)[C@H](CC[C@@H]3C[C@@H](O)CC(=O)O3)[C@H]21 [Lovastatin]
Difference [1, 17]: −0.11 | Cholesterol-free [1, 18]: 0.7089 | Complete [1, 19]: 0.603 | Cholesterol-free media + simvastatin (0.04 μM) [2, 5]: 0.5184 | Complete Media [2, 6]: 0.7992 | Difference [2, 20]: 0.28

CO[C@@]1(NC(=O)CSCC#N)C(=O)N2C(C(=O)O)=C(CSc3nnnn3C)CS[C@@H]21 [Cefmetazole (sodium)]
Cholesterol-free [1, 12]: 0.6502 | Complete [1, 13]: 0.9897 | Difference [1, 14]: 0.34 | Cholesterol-free media + simvastatin (0.04 μM) [2, 5]: 1.32 | Complete Media [2, 6]: 1.164 | Difference [2, 7]: −0.16

Maraviroc
Cholesterol-free [1, 12]: 0.6337 | Complete [1, 13]: 0.8933 | Difference ([1]; complete vs cholesterol-free media, […]): 0.26 | Difference [2, 16]: 0.03

COC(c1ccccc1)(c1ccccc1)[C@H](Oc1nc(C)cc(C)n1)C(=O)O [Ambrisentan]
Difference [1, 17]: −0.16 | Cholesterol-free [1, 18]: 1.13 | Complete [1, 19]: 0.9703 | Cholesterol-free media + simvastatin (0.04 μM) [2, 5]: 1.296 | Complete Media [2, 6]: 1.497 | Difference [2, 20]: 0.20

Dexchlorpheniramine (maleate)
Difference [1, 3]: −0.05 | Cholesterol-free media + simvastatin (0.04 μM) [2, 9]: 0.9393 | Complete Media [2, 10]: 0.9459 | Difference [2, 11]: 0.01

CC(=O)OCC(=O)[C@@]12OC(C)(C)O[C@@H]1C[C@H]1[C@@H]3C[C@H](F)C4=CC(=O)C=C[C@]4(C)[C@@]3(F)[C@@H](O)C[C@@]12C [Fluocinonide]
Difference [1, 3]: −0.04 | Cholesterol-free [1, 12]: 0.5848 | Complete [1, 13]: 0.544 | Cholesterol-free media + simvastatin (0.04 μM) [2, 5]: 0.6998 | Complete Media [2, 6]: 0.898 | Difference [2, 20]: 0.20

C[C@H]1[C@@H](O)O[C@@H]2O[C@@]3(C)CC[C@H]4[C@H](C)CC[C@@H]1[C@@]24OO3 [Dihydroartemisinin]
Difference [1, 3]: 0.05 | Cholesterol-free [1, 12]: 0.5972 | Complete [1, 13]: 0.6489 | Cholesterol-free media + simvastatin (0.04 μM) [2, 8]: 0.9193 | Complete Media ([2]; drug in complete media): 0.7262 | Difference [2, 7]: −0.19

Cc1oc(=O)oc1COC(=O)[C@@H]1N2C(=O)[C@@H](NC(=O)[C@H](N)c3ccccc3)[C@H]2SC1(C)C [Lenampicillin (hydrochloride)]
Difference [1, 17]: −0.08 | Cholesterol-free [1, 18]: 1.101 | Complete [1, 19]: 1.02 | Cholesterol-free media + simvastatin (0.04 μM) [2, 5]: 1.05 | Complete Media [2, 6]: 0.9118 | Difference [2, 7]: −0.14

COc1ccc2c(c1)c(CC(=O)O)c(C)n2C(=O)c1ccc(Cl)cc1 [Indomethacin]
Difference [1, 21]: −0.82 | Cholesterol-free [1, 22]: 1.574 | Complete [1, 23]: 0.7546 | Cholesterol-free media + simvastatin (0.04 μM) [2, 5]: 1.269 | Complete Media [2, 6]: 1.474 | Difference [2, 20]: 0.20

C[C@]12CCC(=O)C=C1CC[C@@H]1[C@@H]2C(=O)C[C@@]2(C)[C@H]1CC[C@]2(O)C(=O)CO [Cortisone]
Difference [1, 3]: −0.30 | Cholesterol-free [1, 4]: 1.216 | Complete ([1]; NCI-H292 cells, complete media): 0.9117 | Cholesterol-free media + simvastatin (0.04 μM) [2, 5]: 1.033 | Complete Media [2, 6]: 0.8818 | Difference [2, 7]: −0.15

CN(C)CCC=C1c2ccccc2C(C)(C)c2ccccc21 [Melitracen (hydrochloride)]
Difference [1, 17]: −0.10 | Cholesterol-free [1, 18]: 1.283 | Complete [1, 19]: 1.187 | Cholesterol-free media + simvastatin (0.04 μM) [2, 5]: 1.24 | Complete Media [2, 6]: 1.495 | Difference [2, 20]: 0.26

NCCc1c[nH]c2ccc(O)cc12 [Serotonin hydrochloride]
Difference [1, 21]: −0.64 | Cholesterol-free [1, 22]: 1.639 | Complete [1, 23]: 1.003 | Cholesterol-free media + simvastatin (0.04 μM) [2, 8]: 1.379 | Complete Media ([2]; drug in complete media): 1.18 | Difference [2, 7]: −0.20

COc1ccc(CCN(C)CCC[C@@](C#N)(c2ccc(OC)c(OC)c2)C(C)C)cc1OC.Cl [(S)-Verapamil (hydrochloride)]
Difference [1, 15]: −0.20 | Cholesterol-free [1, 4]: 1.169 | Complete ([1]; NCI-H292 cells, complete media): 0.9711 | Cholesterol-free media + simvastatin (0.04 μM) [2, 8]: 1.086 | Complete Media ([2]; drug in complete media): 0.9249 | Difference [2, 24]: −0.16

OC(CNCC(O)C1CCc2cc(F)ccc2O1)C1CCc2cc(F)ccc2O1 (stereo not drawn) [Nebivolol (hydrochloride)]
Cholesterol-free [1, 12]: 0.567 | Difference [1, 14]: 0.61 | Cholesterol-free media + simvastatin (0.04 μM) [2, 9]: 0.9013 | Complete Media [2, 10]: 0.8774 | Difference [2, 11]: −0.02

CN1CCN(CC/C=C2/c3ccccc3Sc3ccc(S(=O)(=O)N(C)C)cc32)CC1 [(Z)-Thiothixene]
Difference [1, 3]: −0.29 | Cholesterol-free [1, 4]: 1.344 | Complete ([1]; NCI-H292 cells, complete media): 1.05 | Cholesterol-free media + simvastatin (0.04 μM) ([2]; cholesterol-free media with simvastatin 0.04 μM, cell growth value in FDA drug screen): 0.9883 | Complete Media ([2]; complete media, cell growth value in FDA drug screen): 1.062 | Difference [2, 20]: 0.07

CCN(CC)C(=O)C1(c2ccccc2)CC1CN.Cl (stereo not drawn) [Milnacipran ((1S-cis)hydrochloride)]
Difference [1, 15]: −0.18 | Cholesterol-free [1, 18]: 1.07 | Complete [1, 19]: 0.894

Escin
Difference [1, 15]: −0.22 | Cholesterol-free [1, 4]: 1.276

γ-Oryzanol
Complete Media [2, 6]: 1.39 | Difference [2, 16]: 0.24

NS(=O)(=O)c1cc(C(=O)O)c(NCc2ccco2)cc1Cl [Furosemide]
Cholesterol-free media + simvastatin (0.04 μM) [2, 8]: 1.11 | Complete Media ([2]; drug in complete media): 0.894 | Difference [2, 7]: −0.22

NS(=O)(=O)c1cc(C(=O)O)c(NCc2ccco2)cc1Cl [Furosemide (sodium)]
Cholesterol-free media + simvastatin (0.04 μM) [2, 9]: 1.074 | Complete Media [2, 10]: 1.02 | Difference [2, 11]: −0.05

Dihydroergotoxine (mesylate)
Cholesterol-free media + simvastatin (0.04 μM) [2, 9]: 0.9089 | Complete Media [2, 10]: 0.9065 | Difference ([2]; complete media minus cholesterol-free media + simvastatin (0.04 μM), […]): 0.00

CCN(CC)C(=O)C1(c2ccccc2)CC1CN.Cl (stereo not drawn) [Milnacipran ((1S-cis) hydrochloride)]
Cholesterol-free media + simvastatin (0.04 μM) [2, 5]: 0.9487 | Complete Media [2, 6]: 0.8731 | Difference [2, 24]: −0.08

CC(C)Cc1ccc([C@@H](C)C(=O)O)cc1 [(R)-(—)-Ibuprofen]
Difference [1, 21]: −0.96 | Cholesterol-free [1, 22]: 1.742 | Complete [1, 23]: 0.7774

CC(C)Cc1ccc([C@@H](C)C(=O)O)cc1 [(R)-(−)-Ibuprofen]
Difference [2, 11]: 0.01
